Results from patent US8324390B2, “Tetrazole-substituted anthranilamides as pesticides” (Bayer CropScience AG, priority 2008, dated 2012).
Where two headings read alike, the source gives them in different places.

How the values were obtained:
[1] = log P determination by HPLC (EEC Directive 79/831 Annex V.A8); type: physicochemical
Experimental: The measurements were carried out using an Agilent 1100 LC system with a 50*4.6 Zorbax Eclipse C18 1.8 μm column (oven temperature 55° C., flow rate 2.0 ml/min).
The following mobile phases were used:
Mobile phase A: acetonitrile+1000 μl of formic acid/l
Mobile phase B: Millipore water+900 μl of formic acid/l

[2] = tested on: caterpillars of the armyworm (Spodoptera frugiperda); test: Spodoptera frugiperda test (SPODFR spray treatment); type: in vivo; settings: Spodoptera frugiperda, foliar, read-out: effect in % (caterpillars killed)
Description: Solvent: 78.0 parts by weight of acetone

[3] = tested on: larvae of the mustard beetle (Phaedon cochleariae); test: Phaedon test (PHAECO spray treatment); settings: Phaedon cochleariae, in Brassica rapa, foliar, read-out: effect in % (beetle larvae killed)
[4] = reversed-phase HPLC, Zorbax Eclipse C18 column, by HPLC according to EEC Directive 79/831 Annex V.A8, read-out: log P
[5] = application rate 100 g/ha, maize leaf discs
[6] = reversed-phase HPLC, Zorbax Eclipse C18 column, determined by HPLC according to EEC Directive 79/831 Annex V.A8, read-out: log P
[7] = by HPLC according to EEC Directive 79/831 Annex V.A8, read-out: log P

| chromatographic logP [1, 4] | chromatographic logP [1, 6] | Compound | pest or weed control at 100 g/ha [2, 5] [%] | pest or weed control at 100 g/ha [3] [%] | chromatographic logP [1, 7] | pest or weed control at 100 g/ha ([2]; in Zea mays) [%] | chromatographic logP ([1]; log P) |
| --- | --- | --- | --- | --- | --- | --- | --- |
|  | 3.19 | CNC(=O)c1cc(Cl)cc(C)c1NC(=O)c1cc(Cn2nnc(C(F)(F)F)n2)nn1-c1ccccc1 [Example 404] | ≥ 80 | ≥ 80 |  |  |  |
|  | 3.8 | Cc1cc(C#N)cc(C(=O)NC(C)C2CC2)c1NC(=O)c1cc(Cn2nnnc2C(F)(C(F)(F)F)C(F)(F)F)nn1-c1ncccc1Cl (stereo not drawn) [Example 499] | ≥ 80 | ≥ 80 |  |  |  |
| 4.47 |  | CC(C)(C)NC(=O)c1cc(Cl)cc(Cl)c1NC(=O)c1cc(Cn2nnc(C(F)(C(F)(F)F)C(F)(F)F)n2)nn1-c1ncccc1Cl [Example 390] | ≥ 80 | ≥ 80 |  |  |  |
|  | 3.84 | Cc1cc(C#N)cc(C(=O)NC2CCCC2)c1NC(=O)c1cc(Cn2nnc(C(F)(F)F)n2)nn1-c1ccccc1Cl [Example 401] | ≥ 80 | ≥ 80 |  |  |  |
|  | 3.2 | Cc1cc(C#N)cc(C(=O)NCC(F)(F)F)c1NC(=O)c1cc(Cn2nnnc2C(F)(F)F)nn1-c1ccccc1Cl [Example 538] | ≥ 80 | ≥ 80 |  |  |  |
| 3.29 |  | Cc1cc(C#N)cc(C(=O)NCC#N)c1NC(=O)c1cc(Cn2nnc(C(F)(C(F)(F)F)C(F)(F)F)n2)nn1-c1ncccc1Cl [Example 374] | ≥ 80 | ≥ 80 |  |  |  |
|  | 3.35 | Cc1cc(C#N)cc(C(=O)NC(C)(C)C)c1NC(=O)c1cc(Cn2nnnc2C(F)(F)F)nn1-c1ccccc1 [Example 520] | ≥ 80 | ≥ 80 |  |  |  |
|  | 3.78 | CNC(=O)c1cc(Cl)cc(C)c1NC(=O)c1cc(Cn2nnc(C(F)(F)C(F)(F)F)n2)nn1-c1ccccc1Cl [Example 402] | ≥ 80 | ≥ 80 |  |  |  |
|  | 2.81 | CNC(=O)c1cc(C#N)cc(C)c1NC(=O)c1cc(Cn2nnc(C(F)(F)F)n2)nn1-c1ccccc1 [Example 431] | ≥ 80 | ≥ 80 |  |  |  |
| 3.84 |  | Cc1cc(C#N)cc(C(=O)NCC2CC2)c1NC(=O)c1cc(Cn2nnc(C(F)(C(F)(F)F)C(F)(F)F)n2)nn1-c1ncccc1Cl [Example 373] | ≥ 80 | ≥ 80 |  |  |  |
|  | 3.91 | Cc1cc(Cl)cc(C(=O)NC(C)(C)C)c1NC(=O)c1cc(Cn2nnnc2C(F)(F)C(F)(F)F)nn1-c1ncccc1Br [Example 514] | ≥ 80 | ≥ 80 |  |  |  |
| 4.07 |  | Cc1cc(C#N)cc(C(=O)NC(C)C2CC2)c1NC(=O)c1cc(Cn2nnc(C(F)(C(F)(F)F)C(F)(F)F)n2)nn1-c1ncccc1Cl (stereo not drawn) [Example 368] | ≥ 80 | ≥ 80 |  |  |  |
| 4.17 |  | O=C(NCC1CC1)c1cc(Cl)cc(Cl)c1NC(=O)c1cc(Cn2nnc(C(F)(C(F)(F)F)C(F)(F)F)n2)nn1-c1ncccc1Cl [Example 392] | ≥ 80 | ≥ 80 |  |  |  |
| 3.89 |  | O=C(NCC(F)F)c1cc(Cl)cc(Cl)c1NC(=O)c1cc(Cn2nnc(C(F)(C(F)(F)F)C(F)(F)F)n2)nn1-c1ncccc1Cl [Example 396] | ≥ 80 | ≥ 80 |  |  |  |
|  | 3.17 | CCNC(=O)c1cc(Br)cc(C)c1NC(=O)c1cc(Cn2nnnc2C(F)(F)F)nn1-c1ncccc1C(F)(F)F [Example 453] | ≥ 80 | ≥ 80 |  |  |  |

More lines, now with the values behind:

| Compound | chromatographic logP [1, 4] | chromatographic logP [1, 6] | pest or weed control at 100 g/ha [2, 5] [%] | pest or weed control at 100 g/ha [3] [%] | chromatographic logP [1, 7] | pest or weed control at 100 g/ha ([2]; in Zea mays) [%] | chromatographic logP ([1]; log P) |
| --- | --- | --- | --- | --- | --- | --- | --- |
| CNC(=O)c1cc(Cl)cc(C)c1NC(=O)c1cc(Cn2nnc(C(F)(F)F)n2)nn1-c1ncccc1C(F)(F)F [Example 226] | 3.16 |  | ≥ 80 | ≥ 80 |  |  |  |
| Cc1cc(I)cc(C(=O)NC2CC2)c1NC(=O)c1cc(Cn2nnc(C(F)(F)C(F)(F)C(F)(F)F)n2)nn1-c1ncccc1Cl [Example 111] |  |  |  | ≥ 80 | 4.23 | ≥ 80 |  |
| Cc1cc(Cl)cc(C(=O)NCC#N)c1NC(=O)c1cc(Cn2nnc(C(F)(C(F)(F)F)C(F)(F)F)n2)nn1-c1ncccc1Cl [Example 358] |  |  |  | ≥ 80 |  | ≥ 80 | 3.62 |
| Cc1cc(C#N)cc(C(=O)NC(C)C)c1NC(=O)c1cc(Cn2nnc(C(F)(F)F)n2)nn1-c1ncccc1Br [Example 323] | 3.1 |  | ≥ 80 | ≥ 80 |  |  |  |
| Cc1cc(F)cc(C(=O)NC(C)C)c1NC(=O)c1cc(Cn2nnc(C(F)(F)F)n2)nn1-c1ncccc1Cl [Example 40] |  |  |  | ≥ 80 |  | ≥ 80 | 3.11 |
| Cc1cc(C#N)cc(C(=O)NC2CC2)c1NC(=O)c1cc(Cn2nnnc2C(F)F)nn1-c1ncccc1Cl [Example 468] |  |  |  | ≥ 80 |  | ≥ 80 | 2.12 |
| Cc1cc(Cl)cc(C(=O)NCC(C)C)c1NC(=O)c1cc(Cn2nnc(C(F)(F)F)n2)nn1-c1ncccc1Cl [Example 37] |  |  |  | ≥ 80 |  | ≥ 80 | 3.78 |
| O=C(NC1CCC1)c1cc(Cl)cc(Cl)c1NC(=O)c1cc(Cn2nnc(C(F)F)n2)nn1-c1ncccc1Cl [Example 291] |  |  |  | ≥ 80 |  | ≥ 80 | 3.06 |
| Cc1cc(C#N)cc(C(=O)NCC(C)(C)CF)c1NC(=O)c1cc(Cn2nnc(C(F)(F)F)n2)nn1-c1ncccc1Cl [Example 116] |  |  |  | ≥ 80 |  | ≥ 80 | 3.35 |
| CCNC(=O)c1cc(Cl)cc(Cl)c1NC(=O)c1cc(Cn2nnc(C(F)(F)C(F)(F)F)n2)nn1-c1ncccc1Cl [Example 152] |  |  |  | ≥ 80 |  | ≥ 80 | 3.57 |
| Cc1cc(Cl)cc(C(=O)NC(C)C2CC2)c1NC(=O)c1cc(Cn2nnnc2C(F)(F)C(F)(F)F)nn1-c1ncccc1Cl (stereo not drawn) [Example 199] |  |  |  | ≥ 80 |  | ≥ 80 | 3.88 |
| Cc1cc(C#N)cc(C(=O)NCC#N)c1NC(=O)c1cc(Cn2nnnc2C(F)(F)F)nn1-c1ncccc1Cl [Example 208] |  |  |  | ≥ 80 |  | ≥ 80 | 2.31 |
| Cc1cc(C#N)cc(C(=O)NCC(F)F)c1NC(=O)c1cc(Cn2nnnc2C(F)(F)F)nn1-c1ncccc1Cl [Example 207] |  |  |  | ≥ 80 |  | ≥ 80 | 2.57 |
| Cc1cc(I)cc(C(=O)NC(C)C)c1NC(=O)c1cc(Cn2nnc(C(F)(F)C(F)(F)C(F)(F)F)n2)nn1-c1ncccc1Cl [Example 109] |  |  |  | ≥ 80 | 4.48 | ≥ 80 |  |
| Cc1cc(Cl)cc(C(=O)NCC2CC2)c1NC(=O)c1cc(Cn2nnc(C(F)(F)F)n2)nn1-c1ncccc1Cl [Example 46] |  |  |  | ≥ 80 |  | ≥ 80 | 3.53 |
| Cc1cc(Cl)cc(C(=O)NC2CC2)c1NC(=O)c1cc(Cn2nnc(C(F)(F)F)n2)nn1-c1ncccc1Cl [Example 25] |  |  |  | ≥ 80 |  | ≥ 80 | 3.23 |
| CCNC(=O)c1cc(Cl)cc(C)c1NC(=O)c1cc(Cn2nnc(C(F)(C(F)(F)F)C(F)(F)F)n2)nn1-c1ncccc1Cl [Example 364] |  |  |  | ≥ 80 |  | ≥ 80 | 3.96 |
| Cc1cc(Br)cc(C(=O)NC2CCC2)c1NC(=O)c1cc(Cn2nnc(C(F)(F)F)n2)nn1-c1ncccc1Cl [Example 50] |  |  |  | ≥ 80 |  | ≥ 80 | 3.71 |
| Cc1cc(C#N)cc(C(=O)NCC#N)c1NC(=O)c1cc(Cn2nnc(C(F)(F)F)n2)nn1-c1ncccc1C(F)(F)F [Example 253] | 2.81 |  | ≥ 80 | ≥ 80 |  |  |  |
| Cc1cc(Cl)cc(C(=O)NC(C)C)c1NC(=O)c1cc(Cn2nnc(C(F)F)n2)nn1-c1ncccc1Cl [Example 231] |  |  |  | ≥ 80 |  | ≥ 80 | 2.95 |
| CNC(=O)c1cc(Br)cc(C)c1NC(=O)c1cc(Cn2nnc(C(F)(F)F)n2)nn1-c1ncccc1C(F)(F)F [Example 228] | 3.28 |  | ≥ 80 | ≥ 80 |  |  |  |
| Cc1cc(I)cc(C(N)=O)c1NC(=O)c1cc(Cn2nnc(C(F)(F)C(F)(F)C(F)(F)F)n2)nn1-c1ncccc1Cl [Example 110] |  |  |  | ≥ 80 | 3.7 | ≥ 80 |  |
| CCC(COC(F)(F)F)NC(=O)c1cc(C#N)cc(C)c1NC(=O)c1cc(Cn2nnc(C(F)(F)F)n2)nn1-c1ncccc1Cl (stereo not drawn) [Example 117] | 3.74 |  | ≥ 80 | ≥ 80 |  |  |  |
| CNC(=O)c1cc(C#N)cc(C)c1NC(=O)c1cc(Cn2nnc(C(F)(F)F)n2)nn1-c1cccc(Cl)c1Cl [Example 327] | 3.4 |  | ≥ 80 | ≥ 80 |  |  |  |
